{"source": "the NIST ThermoML archive (doi:10.1016/j.jct.2017.11.005)", "conditions": "Gas, Capillary tube (Ostwald / Ubbelohde) method", "note": "Numbers after ± are expanded uncertainties.", "data": [{"smiles": "O=C=O", "note": "[carbon dioxide]", "values": [{"measurement": "viscosity", "setting": "308.2 K, 1200 kPa", "value": "0.0153 ± 0.0005", "unit": "mPa·s"}, {"measurement": "viscosity", "setting": "308.2 K, 2070 kPa", "value": "0.0154 ± 0.0005", "unit": "mPa·s"}, {"measurement": "viscosity", "setting": "308.2 K, 11330 kPa", "value": "0.0638 ± 0.0012", "unit": "mPa·s"}, {"measurement": "viscosity", "setting": "308.2 K, 22090 kPa", "value": "0.0882 ± 0.0017", "unit": "mPa·s"}, {"measurement": "viscosity", "setting": "308.2 K, 34970 kPa", "value": "0.1068 ± 0.0021", "unit": "mPa·s"}, {"measurement": "viscosity", "setting": "308.2 K, 68930 kPa", "value": "0.1441 ± 0.0028", "unit": "mPa·s"}, {"measurement": "viscosity", "setting": "308.2 K, 101200 kPa", "value": "0.1733 ± 0.0036", "unit": "mPa·s"}, {"measurement": "viscosity", "setting": "308.2 K, 150520 kPa", "value": "0.222 ± 0.0047", "unit": "mPa·s"}, {"measurement": "viscosity", "setting": "323.2 K, 1270 kPa", "value": "0.0161 ± 0.0005", "unit": "mPa·s"}, {"measurement": "viscosity", "setting": "323.2 K, 2050 kPa", "value": "0.0163 ± 0.0005", "unit": "mPa·s"}, {"measurement": "viscosity", "setting": "323.2 K, 5040 kPa", "value": "0.0174 ± 0.0005", "unit": "mPa·s"}, {"measurement": "viscosity", "setting": "323.2 K, 11440 kPa", "value": "0.0398 ± 0.001", "unit": "mPa·s"}, {"measurement": "viscosity", "setting": "323.2 K, 20670 kPa", "value": "0.0711 ± 0.0015", "unit": "mPa·s"}, {"measurement": "viscosity", "setting": "323.2 K, 50820 kPa", "value": "0.112 ± 0.0024", "unit": "mPa·s"}, {"measurement": "viscosity", "setting": "323.2 K, 105530 kPa", "value": "0.1606 ± 0.0035", "unit": "mPa·s"}, {"measurement": "viscosity", "setting": "323.2 K, 150430 kPa", "value": "0.1953 ± 0.0043", "unit": "mPa·s"}]}]}
